In US12594254B2, “Intranasal administration of n-acetylcysteine and uses thereof” (Neuronasal, Inc., priority 2022, dated 2026):

What was measured:
Type in all cases: in vivo, human
[1] = system: regional brain GSH/creatine ratio; assay: 1H-MRS change from baseline of regional brain GSH/Creatine ratio after single dose IN NAC
Experimental: (§1) Various assays were designed and tested assess the feasibility of IN NAC administration for direct nose-to-brain delivery as shown and described for FIGS. 1-4. Assays include studies in healthy participants using ^1H-MRS assessment of change from baseline in NAC-derived metabolic markers in three brain regions (occipital cortex, striatum, and DLPF), following a single dose of 196 mg to 200 mg IN NAC at 1, 3, and 6 hours.
(§2) Magnetic resonance (MR) spectra of NAC-derived brain metabolites in three brain regions (occipital cortex, striatum, and DLPF) at baseline and 1, 3, and 6 hours following IN NAC were assessed. Percentage change from Baseline of GSH/Creatine and N-Acetylaspartate (NAA)/Creatine in the three regions by treatment group were plotted (FIGS. 3-4).

[2] = Blood PK of total NAC and GSH after a single dose of IN NAC in healthy participants
Experimental: as §1
Concentrations of the targeted metabolites were reported for various time points to assess total NAC and GSH concentrations. Mean (±standard error [SE]) of blood PK data were plotted on linear and semi logarithmic scales (FIGS. 1-2).

[3] = system: NAA/creatine ratio; assay: 1H-MRS change from baseline of regional brain NAA/Creatine ratio after single dose IN NAC; conditions: for increase of NAA/creatine ratio post-dose: dorsolateral prefrontal cortex
Experimental: as §1, §2

**Q.** For CC(=O)N[C@@H](CS)C(=O)O [NAC, N-acetylcysteine], which “effect on regional brain GSH (overall)” value ([1]; 196 mg IN NAC, APTAR 5 mL CPS Syringe, 1, 3 and 6 hour post-dose timepoints) is on record?
**A.** failed to produce consistent elevation

**Q.** What about the “effect on regional brain GSH (overall)” value ([1]; 200 mg IN NAC, Teleflex MAD device, 5 participants with analyzable MRS data) of the same compound?
**A.** time- and region-dependent increase

**Q.** And the “increase of regional brain GSH/creatine ratio relative to pre-dose baseline” value ([1]; dorsolateral prefrontal cortex (n=5), 200 mg IN NAC, Teleflex MAD device, 1 hour post-dose)?
**A.** ~17%

**Q.** What about the “increase of regional brain GSH/creatine ratio relative to pre-dose baseline” value ([1]; dorsolateral prefrontal cortex (n=5), 200 mg IN NAC, Teleflex MAD device, 3 hours post-dose) of the same compound?
**A.** ~42%

**Q.** What about the “increase of regional brain GSH/creatine ratio relative to pre-dose baseline” value ([1]; dorsolateral prefrontal cortex (n=5), 200 mg IN NAC, Teleflex MAD device, 6 hours post-dose) of the same compound?
**A.** ~34%

**Q.** And the “increase of regional brain GSH/creatine ratio relative to pre-dose baseline” value ([1]; dorsolateral prefrontal cortex, 196 mg IN NAC, APTAR 5 mL CPS Syringe (n=3), 1 hour)?
**A.** 18%

**Q.** And the “decrease of regional brain GSH/creatine ratio relative to pre-dose baseline” value ([1]; dorsolateral prefrontal cortex, 196 mg IN NAC, APTAR 5 mL CPS Syringe (n=3), 3 hours)?
**A.** 71%

**Q.** And the “increase of regional brain GSH/creatine ratio relative to pre-dose baseline” value ([1]; dorsolateral prefrontal cortex, 196 mg IN NAC, APTAR 5 mL CPS Syringe (n=3), 6 hours)?
**A.** 4%

**Q.** And the “increase of regional brain GSH/creatine ratio relative to pre-dose baseline” value ([1]; occipital cortex (n=5), 200 mg IN NAC, Teleflex MAD device, 1 hour post-dose)?
**A.** ~25%

**Q.** And the “increase of regional brain GSH/creatine ratio relative to pre-dose baseline” value ([1]; occipital cortex (n=5), 200 mg IN NAC, Teleflex MAD device, 3 hours post-dose)?
**A.** ~49%

**Q.** And the “increase of regional brain GSH/creatine ratio relative to pre-dose baseline” value ([1]; occipital cortex (n=5), 200 mg IN NAC, Teleflex MAD device, 6 hours post-dose)?
**A.** ~21%

**Q.** And the “decrease of regional brain GSH/creatine ratio relative to pre-dose baseline” value ([1]; occipital cortex, 196 mg IN NAC, APTAR 5 mL CPS Syringe (n=3), 1 hour)?
**A.** 17%

**Q.** And the “increase of regional brain GSH/creatine ratio relative to pre-dose baseline” value ([1]; occipital cortex, 196 mg IN NAC, APTAR 5 mL CPS Syringe (n=3), 3 hours)?
**A.** 2%

**Q.** What about the “increase of regional brain GSH/creatine ratio relative to pre-dose baseline” value ([1]; occipital cortex, 196 mg IN NAC, APTAR 5 mL CPS Syringe (n=3), 6 hours) of the same compound?
**A.** 1%

**Q.** And the “increase of regional brain GSH/creatine ratio relative to pre-dose baseline” value ([1]; striatum (n=4), 200 mg IN NAC, Teleflex MAD device, 1 hour post-dose)?
**A.** approximately 36%

**Q.** What about the “increase of regional brain GSH/creatine ratio relative to pre-dose baseline” value ([1]; striatum (n=4), 200 mg IN NAC, Teleflex MAD device, 3 hours post-dose) of the same compound?
**A.** ~20%

**Q.** And the “increase of regional brain GSH/creatine ratio relative to pre-dose baseline” value ([1]; striatum (n=4), 200 mg IN NAC, Teleflex MAD device, 6 hours post-dose)?
**A.** ~14%

**Q.** What about the “increase of regional brain GSH/creatine ratio relative to pre-dose baseline” value ([1]; striatum, 196 mg IN NAC, APTAR 5 mL CPS Syringe (n=3), 1 hour) of the same compound?
**A.** 2%

**Q.** And the “decrease of regional brain GSH/creatine ratio relative to pre-dose baseline” value ([1]; striatum, 196 mg IN NAC, APTAR 5 mL CPS Syringe (n=3), 3 hours)?
**A.** 11%

**Q.** What about the “change of regional brain GSH/creatine ratio relative to pre-dose baseline” value ([1]; striatum, 196 mg IN NAC, APTAR 5 mL CPS Syringe (n=3), 6 hours) of the same compound?
**A.** extreme variability

**Q.** What about the “mean percentage change from Baseline in NAC (blood)” value (from here on “mean percentage change”) ([2]; 196 mg IN NAC, APTAR 5 mL CPS Syringe, 1 hour post-dose) of the same compound?
**A.** 2881.66%

**Q.** What about the “mean percentage change” value ([2]; 196 mg IN NAC, APTAR 5 mL CPS Syringe, 3 hours post-dose) of the same compound?
**A.** 1158.20%

**Q.** And the “mean percentage change” value ([2]; 196 mg IN NAC, APTAR 5 mL CPS Syringe, 6 hours post-dose)?
**A.** 419.35%

**Q.** What about the “mean percentage change” value ([2]; 200 mg IN NAC, Teleflex MAD device, 1 hour post-dose) of the same compound?
**A.** 2379.60%

**Q.** And the “mean percentage change” value ([2]; 200 mg IN NAC, Teleflex MAD device, 3 hours post-dose)?
**A.** 1117.01%

**Q.** And the “mean percentage change” value ([2]; 200 mg IN NAC, Teleflex MAD device, 6 hours post-dose)?
**A.** 438.17%

**Q.** And the “increase of NAA/creatine ratio post-dose” value ([3]; 196 mg dose group, second of two values, time point unclear (1, 3 and 6 hours named))?
**A.** 9.0%

**Q.** And the “increase of NAA/creatine ratio post-dose” value ([3]; 196 mg dose group, time point unclear (1, 3 and 6 hours named))?
**A.** 7.9%

**Q.** And the “increase of NAA/creatine ratio post-dose” value ([3]; 200 mg dose group, 1 hour post-dose)?
**A.** 4.5%

**Q.** And the “increase of NAA/creatine ratio post-dose” value ([3]; 200 mg dose group, 3 hours post-dose)?
**A.** 6.0%

**Q.** And the “increase of NAA/creatine ratio post-dose” value ([3]; 200 mg dose group, 6 hours post-dose)?
**A.** 3.8%

**Q.** And the “post-dose changes in the NAA/creatine ratio relative to baseline” value ([3]; striatum and occipital cortex, both dose groups (200 mg and 196 mg), described as minimal)?
**A.** ≤ 2.5%

**Q.** What about the “post-dose changes in the NAA/creatine ratio” value ([3]; striatum, 6 hours, 196 mg cohort) of the same compound?
**A.** highly variable changes
